The values that follow come from ChEMBL document CHEMBL3400106, “TR-FRET binding assay targeting unactivated form of Bruton's tyrosine kinase” (Bioorg Med Chem Lett, 2015).

The source made the active and inactive calls. The rule behind the calls is not given here.

Data set [1] has as its target T1, Tyrosine-protein kinase BTK (Homo sapiens, UniProt Q06187). The data set is described as follows: Binding affinity to biotinylated and unactivated BTK (unknown origin) incubated for 1 hr by TR-FRET assay.
Data set [2] concerns the target T1, Tyrosine-protein kinase BTK. Put plainly: Binding affinity to biotinylated and unactivated BTK (unknown origin) at 0.001 to 0.1 uM incubated for 1 hr by TR-FRET assay.
The target is the same in data set [3]. The data set is described as follows: Binding affinity to biotinylated and activated BTK (unknown origin) at 0.001 to 0.1 uM incubated for 1 hr by TR-FRET assay. In general terms: TR-FRET usually uses a lanthanide donor and a delayed reading to cut background.
Data set [4] has the same target. Put plainly: Inhibition of biotinylated and activated BTK (unknown origin) using FITC-labeled Srctide peptide substrate and ATP.
Data set [5] shares this target. Put plainly: Inhibition of biotinylated and unactivated BTK (unknown origin) using FITC-labeled Srctide peptide substrate and ATP.
Data set [6] can be described thus: Chemical stability in solution. Type of data set: physicochemical.
Data set [7] concerns the target T1, Tyrosine-protein kinase BTK. Put plainly: Inhibition of biotinylated and activated BTK (unknown origin) up to 100 uM using FITC-labeled Srctide peptide substrate and ATP.
Data set [8] shares this target. Put plainly: Inhibition of unactivated BTK (unknown origin) using 30 uM probe 5-(4-(4-(6-(3-(4-tert-butylbenzamido)-2-methylphenyl)-4-methyl-3-oxo-3,4-dihydropyrazin-2-ylamino)benzoyl)piperazine-1-carbothioamido)-2-(6-hydroxy-3-oxo-3H-xanthen-9-yl)benzoic acid.

T1 sequence (Q06187 whole entry): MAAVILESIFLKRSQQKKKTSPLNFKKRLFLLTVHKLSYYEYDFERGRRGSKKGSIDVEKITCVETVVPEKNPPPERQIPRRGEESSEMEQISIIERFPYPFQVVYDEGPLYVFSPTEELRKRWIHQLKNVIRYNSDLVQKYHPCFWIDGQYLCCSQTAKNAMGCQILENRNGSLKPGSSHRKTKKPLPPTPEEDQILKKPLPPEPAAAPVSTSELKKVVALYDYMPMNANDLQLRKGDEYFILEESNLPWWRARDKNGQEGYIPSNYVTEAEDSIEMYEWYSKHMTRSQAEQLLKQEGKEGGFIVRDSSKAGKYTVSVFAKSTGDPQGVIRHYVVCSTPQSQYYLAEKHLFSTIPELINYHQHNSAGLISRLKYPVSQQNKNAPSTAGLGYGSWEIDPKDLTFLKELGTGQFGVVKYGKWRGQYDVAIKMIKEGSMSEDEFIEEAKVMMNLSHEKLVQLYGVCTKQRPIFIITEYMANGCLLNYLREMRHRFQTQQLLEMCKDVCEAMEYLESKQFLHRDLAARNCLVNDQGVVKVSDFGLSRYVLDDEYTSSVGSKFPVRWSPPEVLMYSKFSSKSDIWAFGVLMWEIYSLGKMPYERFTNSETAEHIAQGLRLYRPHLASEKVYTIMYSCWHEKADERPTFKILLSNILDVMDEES

Broadly, the Kd is the equilibrium constant for the complex coming apart. Higher therefore signals weaker binding. Broadly, the IC50 is the point on the concentration scale where inhibition reaches its midpoint. Read a high IC50 as lower potency. In the case of `Cc1c(NC(=O)c2ccc(C(C)(C)C)cc2)cccc1-c1cn(C)c(=O)c(Nc2ccc(C(=O)N3CCOC(CNC(=S)Nc4ccc(-c5c6ccc(=O)cc-6oc6cc(O)ccc56)c(C(=O)O)c4)C3)cc2)n1` (stereo unspecified), binding in data set [1] was put at a Kd of 3.8 nM. Moreover, the result in data set [2] was Active. Besides, in data set [3], the outcome was inactive. Further, the IC50 is 350 nM in data set [4] and 4.8 nM in data set [5].
In the case of `Cc1c(NC(=O)c2ccc(C(C)(C)C)cc2)cccc1-c1cn(C)c(=O)c(Nc2ccc(C(=O)NCCCNC(=S)Nc3ccc(-c4c5ccc(=O)cc-5oc5cc(O)ccc45)c(C(=O)O)c3)cc2)n1`, the Kd in data set [1] turned out to be 6.2 nM. Also, the result in data set [2] was Active. In addition, the result in data set [3] was inactive. Also, the values for the IC50 in data set [4] and in data set [5] were 208 nM and 3.2 nM, respectively.
On to `Cc1c(NC(=O)c2ccc(C(C)(C)C)cc2)cccc1-c1cn(C)c(=O)c(Nc2ccc(C(=O)NCCCCNC(=S)Nc3ccc(-c4c5ccc(=O)cc-5oc5cc(O)ccc45)c(C(=O)O)c3)cc2)n1`, for which the Stability entry in data set [6] is “Unstable”. In data set [1], the Kd worked out at 5.5 nM. The result in data set [2] was Active. Further, the outcome in data set [3] was inactive. Besides, the IC50 is 189 nM in data set [4] and 4.3 nM in data set [5].
Take `Cc1c(NC(=O)c2ccc(C(C)(C)C)cc2)cccc1-c1cn(C)c(=O)c(Nc2ccc(C(=O)N3CCN(C(=S)Nc4ccc(-c5c6ccc(=O)cc-6oc6cc(O)ccc56)c(C(=O)O)c4)CC3)cc2)n1`: binding in data set [1] was characterised by a dissociation constant (Kd) of 2.5 nM. In data set [2], the outcome was Active. The outcome in data set [3] was inactive. Besides, the IC50 in data set [4] turned out to be 69 nM; in data set [5], 0.61 nM.
As usually defined, the inhibition is the percentage by which the read-out fell short of the control. As to `CC(=O)Nc1cccc(NC(=O)c2ccc(CN3CCN(C)CC3)cc2)c1`, in data set [7], the inhibition result was “inactive”. Moreover, the inhibition in data set [8] was above 10%. This compound also came in with an IC50 in data set [5] of 4700 nM.
As for `Cc1c(NC(=O)c2ccc(C(C)(C)C)cc2)cccc1-c1cn(C)c(=O)c(Nc2ccc(C(=O)NCCNC(=S)Nc3ccc(-c4c5ccc(=O)cc-5oc5cc(O)ccc45)c(C(=O)O)c3)cc2)n1`, the Stability entry in data set [6] was “Unstable”. The Kd in data set [1] was determined as 6.1 nM. In data set [2], the result was Active. Also, in data set [3], the result was inactive. In addition, the IC50 in data set [4] amounted to 290 nM; in data set [5], 5.6 nM.
On to `Cc1c(NC(=O)c2ccc(C(C)(C)C)cc2)cccc1-c1cn(C)c(=O)c(Nc2ccc(C(=O)NCCOCCOCCNC(=S)Nc3ccc(-c4c5ccc(=O)cc-5oc5cc(O)ccc45)c(C(=O)O)c3)cc2)n1`, for which the Stability entry in data set [6] is recorded as “Unstable”. This compound displayed a Kd in data set [1] of 8.8 nM. Besides, in data set [2], the result was Active. Moreover, the outcome in data set [3] was inactive. The concentration for half-maximal inhibition (IC50) turned out to be 305 nM in data set [4] and 7.8 nM in data set [5].
